According to publication PMC4601051, “Discovery of Indoline-2-carboxamide Derivatives as a New Class of Brain-Penetrant Inhibitors of Trypanosoma brucei” (Journal of Medicinal Chemistry, 2015):
pEC50: −log10 of the molar value. Where two headings read alike, the source gives them in different places.

Key:
[1] = tested on: bloodstream form T. brucei brucei; assay: T. b. brucei whole cell parasite (trypanosome growth) assay; type: cell-based, Trypanosoma brucei brucei; conditions: for pEC50: 69 h + 4 h resazurin; for loss in potency: T. b. brucei EC50, compared to 1 (parent)
Protocol: This was conducted as previously described.[27] Cell culture plates were stamped with 1 μL of an appropriate stock concentration of test compound, followed by addition of 200 μL of trypanosome culture (HMI9-T, 10% FCS) to each well at a density of 2000 cells per well (except column 12 receiving media only). […] Potency was carried out using 10-point dose–response curves.

[2] = in vitro; conditions: human
Protocol: Proliferation assays using bloodstream form T. brucei brucei and human MRC-5 fibroblasts were conducted using a modification of the cell viability assay as previously reported.[27],[39]
MRC-5 cells (2000 cells per well) were seeded in 200 μL of DMEM, 10% FCS, and allowed to adhere overnight. One microliter of test compound was added to each well on the day of assay initiation.
The final DMSO level was 0.5% in all cases.

[3] = Microsomal intrinsic clearance (Clint), mouse; type: in vitro ADME; conditions: mouse liver microsomes, 0.5 μM compound
Protocol: Each test compound (0.5 μM) was incubated with pooled female CDI mouse liver microsomes, pooled male Sprague–Dawley rat microsomes, or pooled mixed gender human liver microsomes (Tebu-Bio, UK; 0.5 mg/mL 50 mM potassium phosphate buffer, pH 7.4) and the reaction started with addition of excess NADPH (8 mg/mL, 50 mM potassium phosphate buffer, pH 7.4). Immediately, at time zero, then at 3, 6, 9, 15, and 30 min, an aliquot (50 μL) of the incubation mixture was removed and mixed with acetonitrile (100 μL) to stop the reaction. Internal standard was added to all samples, and the samples were centrifuged at 1825g for 10 min to sediment precipitated protein. The plates were then sealed prior to UPLC/MS/MS analysis using a Quattro Premier XE (Waters Corporation, USA).
XLfit (IDBS, UK) was used to calculate the exponential decay and consequently the rate constant (k) from the ratio of peak area of test compound to internal standard at each time point.

[4] = Trypanosoma brucei, mean of two or more determinations, read-out: T. b. brucei EC50
[5] = mean of two or more determinations, read-out: T. b. brucei EC50

`CCOc1ccc(OCC(=O)N2c3ccccc3CC2C(=O)NC)cc1` (centres unmarked) [Compound 17] gave a pEC50 [1, 4] of 6.51 and an EC50 at 69 h ([2]; MRC-5 fibroblasts) greater than 50000 nM.

In the case of `CNC(=O)C1Cc2ccccc2N1C(=O)COc1ccc2ccccc2c1` (centres unmarked) [Compound 18], the pEC50 [1, 4] was 5.54 and the EC50 at 69 h ([2]; MRC-5 fibroblasts) was greater than 50000 nM.

`CNC(=O)C1Cc2ccccc2N1C(=O)COc1cccc(OC)c1` (centres unmarked) [Compound 19] gave a pEC50 [1, 4] of 6.35 and an EC50 at 69 h ([2]; MRC-5 fibroblasts) greater than 50000 nM.

In the case of `CNC(=O)C1Cc2ccccc2N1C(=O)Cc1cccs1` (centres unmarked) [Compound 20], the pEC50 [1, 4] was 6.18 and the EC50 at 69 h ([2]; MRC-5 fibroblasts) was greater than 50000 nM.

In the case of `CNC(=O)C1Cc2ccccc2N1C(=O)Cc1ccccc1` (centres unmarked) [Compound 21], the pEC50 [1, 4] was 6.66 and the EC50 at 69 h ([2]; MRC-5 fibroblasts) was greater than 15000 nM.

`CCNC(=O)C1Cc2ccccc2N1C(=O)COc1cccc(C)c1` (centres unmarked) [Compound 22] showed a pEC50 [1, 4] of 6.19 and an EC50 at 69 h ([2]; MRC-5 fibroblasts) greater than 50000 nM.

In the case of `CCNC(=O)C1Cc2ccccc2N1C(=O)CCC1CCCC1` (centres unmarked) [Compound 23], the pEC50 [1, 4] was 6.00 and the EC50 at 69 h ([2]; MRC-5 fibroblasts) was greater than 50000 nM.

`Cc1cccc(OCC(=O)N2c3ccccc3CC2C(N)=O)c1` (centres unmarked) [Compound 24] gave a pEC50 [1, 4] of 4.89 and an EC50 at 69 h ([2]; MRC-5 fibroblasts) greater than 50000 nM.

Work on `CC(C)Oc1ccc(C(=O)N2c3ccccc3CC2C(N)=O)cc1` (centres unmarked) [Compound 25] yielded a pEC50 [1, 4] of less than 4.30 and an EC50 at 69 h ([2]; MRC-5 fibroblasts) greater than 50000 nM.

In the case of `CNC(=O)C1Cc2ccccc2N1C(=O)COCc1ccccc1` (centres unmarked) [Compound 28], the loss in potency [1] was roughly 70 fold, the pEC50 [1, 4] was 5.72 and the EC50 at 69 h ([2]; MRC-5 fibroblasts) was greater than 50000 nM.

For `CNC(=O)C1Cc2ccccc2N1C(=O)COc1ccc(Cl)c(Cl)c1` (centres unmarked) [Compound 30], the loss in potency [1] was 15 fold, the pEC50 [1, 4] was 6.40 and the “mouse microsomal intrinsic clearance” value [3] was 9.1 mL min^–1 g^–1. For the same compound, the EC50 at 69 h ([2]; MRC-5 fibroblasts) was greater than 50000 nM.

With `CNC(=O)[C@H]1Cc2ccccc2N1C(=O)COc1ccc(F)c(F)c1` [Compound 37] the pEC50 [1, 4] was 7.52, the “mouse microsomal intrinsic clearance” value [3] was 3.2 mL min^–1 g^–1 and the EC50 at 69 h ([2]; MRC-5 fibroblasts) was greater than 50000 nM.

Work on `[2H]c1c([2H])c([2H])c(OCC(=O)N2c3ccccc3C[C@@H]2C(=O)NC)c([2H])c1[2H]` [Compound 38] yielded a pEC50 [1, 4] of 7.30 and an EC50 at 69 h ([2]; MRC-5 fibroblasts) greater than 50000 nM.

For `CNC(=O)C1Cc2ccccc2N1C(=O)Cc1cccc2ccccc12` (centres unmarked) [Compound 39], the “T. b. brucei potency in words” value [1] was “complete loss of potency”, the pEC50 ([1]; Trypanosoma brucei, read-out: T. b. brucei EC50, mean of two or more determinations) was 4.30 and the “mouse microsomal intrinsic clearance” value [3] was 28 mL min^–1 g^–1. For the same compound, the EC50 at 69 h [2] was greater than 50000 nM.

With `CNC(=O)C1Cc2ccccc2N1C(=O)Cc1ccc(Cl)cc1` (centres unmarked) [Compound 40] the improvement in activity ([1]; T. b. brucei EC50, compared to 21) was “approximately 3 fold”, the pEC50 [1, 4] was 7.10 and the “mouse microsomal intrinsic clearance” value [3] was 4.4 mL min^–1 g^–1. For the same compound, the EC50 at 69 h ([2]; MRC-5 fibroblasts) was greater than 50000 nM.

With `CNC(=O)C1Cc2ccccc2N1C(=O)Cc1ccc(C(C)C)cc1` (centres unmarked) [Compound 41] the pEC50 [1, 4] was 6.11, the “mouse microsomal intrinsic clearance” value [3] was 35 mL min^–1 g^–1 and the EC50 at 69 h ([2]; MRC-5 fibroblasts) was greater than 50000 nM.

With `CNC(=O)C1Cc2ccccc2N1C(=O)Cc1ccc(C(F)(F)F)cc1` (centres unmarked) [Compound 42] the pEC50 [1, 4] was 7.00, the pEC50 [1, 5] was 6.96 and the “mouse microsomal intrinsic clearance” value [3] was 3.0 mL min^–1 g^–1. It also gave an EC50 at 69 h ([2]; MRC-5 fibroblasts) greater than 50000 nM.

With `CNC(=O)C1Cc2ccccc2N1C(=O)Cc1ccc(F)cc1` (centres unmarked) [Compound 43] the pEC50 [1, 4] was 7.00, the pEC50 [1, 5] was 6.96 and the “mouse microsomal intrinsic clearance” value [3] was 0.8 mL min^–1 g^–1. The EC50 at 69 h ([2]; MRC-5 fibroblasts) was greater than 50000 nM.

With `CNC(=O)C1Cc2ccccc2N1C(=O)Cc1ccc(F)cc1F` (centres unmarked) [Compound 44] the pEC50 [1, 4] was 5.64, the “mouse microsomal intrinsic clearance” value [3] was 0.5 mL min^–1 g^–1 and the EC50 at 69 h ([2]; MRC-5 fibroblasts) was greater than 50000 nM.

In the case of `CNC(=O)[C@H]1Cc2ccccc2N1C(=O)Cc1ccc(Cl)c(F)c1` [Compound 45], the pEC50 [1, 4] was 7.10, the “mouse microsomal intrinsic clearance” value [3] was 8.4 mL min^–1 g^–1 and the EC50 at 69 h ([2]; MRC-5 fibroblasts) was greater than 50000 nM.

Compound `CN(C)C(=O)C1Cc2ccccc2N1C(=O)COc1ccc(Cl)cc1` (centres unmarked) [Compound 48] has a loss in potency [1] of 200 fold, a pEC50 [1, 4] of 5.27 and an EC50 at 69 h ([2]; MRC-5 fibroblasts) greater than 50000 nM.

In the case of `CNC(=O)[C@H]1Cc2cc(F)ccc2N1C(=O)COc1ccc(F)cc1` [Compound 56], the pEC50 [1, 4] was 7.40 and the EC50 at 69 h ([2]; MRC-5 fibroblasts) was greater than 50000 nM.

Compound `CNC(=O)C1Cc2cc(-c3ccncc3)ccc2N1C(=O)COc1ccc(F)cc1` (centres unmarked) [Compound 62] has a loss in potency [1] of roughly 10 fold, a pEC50 [1, 4] of 6.36 and an EC50 at 69 h ([2]; MRC-5 fibroblasts) greater than 50000 nM.

For `CNC(=O)C1Cc2ccccc2CN1C(=O)COc1ccc(F)cc1` (centres unmarked) [Compound 66], the pEC50 [1, 4] was 4.43 and the EC50 at 69 h ([2]; MRC-5 fibroblasts) was greater than 50000 nM.
